The results in this text go back to patent US20240166624A1, “PPARG INVERSE AGONISTS AND USES THEREOF” (Flare Therapeutics Inc., priority 2021, published 2024).

In assay [1] the target is T1, PPARG/RXRA LBD heterodimer (Homo sapiens, UniProt P37231).
T1 construct: His-TEV-Q203-Y477; Uniprot ID P37231-2; made in house; host or cells: E. coli
T1 sequence (P37231 203-477 isoform P37231-2): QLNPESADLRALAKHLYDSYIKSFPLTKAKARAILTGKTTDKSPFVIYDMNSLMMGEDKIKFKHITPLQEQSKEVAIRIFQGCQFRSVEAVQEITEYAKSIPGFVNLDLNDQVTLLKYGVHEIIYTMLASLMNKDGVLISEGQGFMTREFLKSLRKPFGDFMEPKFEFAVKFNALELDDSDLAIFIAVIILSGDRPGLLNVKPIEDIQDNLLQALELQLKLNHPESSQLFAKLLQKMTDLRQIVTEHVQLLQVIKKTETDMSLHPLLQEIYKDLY
T1 sequence (P19793 228-462 partner limits assumed): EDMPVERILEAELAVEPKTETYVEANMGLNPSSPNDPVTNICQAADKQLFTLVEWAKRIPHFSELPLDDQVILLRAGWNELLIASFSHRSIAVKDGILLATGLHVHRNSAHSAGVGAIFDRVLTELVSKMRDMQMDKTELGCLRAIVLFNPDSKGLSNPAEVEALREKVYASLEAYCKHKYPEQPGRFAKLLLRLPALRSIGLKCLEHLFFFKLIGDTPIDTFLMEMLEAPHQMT
The assay is described as follows: PPARγ-MED1 blockade assay (TR-FRET, biotinylated MED1 LxxLL peptide). The format is biochemical. Particulars: WT PPARG LBD/WT RXRA LBD, 80 nM Rosiglitazone, 3 hours. The procedure, abridged: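 TR-FRET measuring biotinylated MED1 LxxLL peptide association with 2 nM each His-PPARG LBD (Q203-Y477) and Flag-RXRA LBD (E228-T462), E. coli expressed. Read after 3 h incubation; ratios normalized to DMSO (0%) and GW9662 minimum (100%) for IC50 and maximal MED1 repulsion.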
(In general: TR-FRET usually uses a lanthanide donor and a delayed reading to cut background.)

In assay [2] the target is T2, PPARG/RXRA LBD heterodimer (Homo sapiens, UniProt P37231).
T2 construct: His-TEV-Q203-Y477; Uniprot ID P37231-2; made in house; host or cells: E. coli
The assay is described as follows: PPARγ-NCOR1 recruitment assay (TR-FRET, biotinylated NCOR1 ID2 peptide). Format: biochemical. Particulars: 80 nM Rosiglitazone, 3 hours, read-out: PPARG-NCOR recruitment assay EC50. In short, it runs like this: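 2 nM each of E. coli-expressed PPARG LBD (Q203-Y477) and RXRA LBD (WT or S427F, E228-T462) with biotinylated NCOR1 ID2 peptide, incubated 3 h; TR-FRET read at Ex/Em 615/665. Ratios normalized to DMSO (0%) and T0070907 maximum (100%) for EC50 and maximal recruitment.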
T2 sequence (O75376 2251-2273 partner, one chain of several): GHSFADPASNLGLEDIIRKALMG

Assay [3] has as its system ANGPTL4, a PPARG target gene, in HT1197 (RXRA S427F mutation) cells. The assay is described as follows: Bladder cancer pharmacodynamic assay, HT1197 cell assay (qPCR of ANGPTL4). The format is cell-based. Conditions: Homo sapiens, 24 hours, 100 nM compound, relative to DMSO control. The procedure, abridged: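 5637 (PPARG amplified) and HT1197 (RXRA S427F) cells treated 24 h with PPARG inverse agonists. FABP4 and ANGPTL4 expression measured by qPCR, normalised to TBP, and reported relative to DMSO control by ΔΔCt.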
In general terms: In qPCR the cycle at which signal appears reflects the starting amount.

As usually defined, the EC50 is the concentration that produces a half-maximal response. For orientation: inhibition means the drop in the measured response relative to a control, in per cent. `N#Cc1ccc(Cl)c(-c2cc(=O)c3c(F)c(-c4ccc5c(c4)NC(=O)C5)c(F)cc3[nH]2)c1` [Example 56, 4-chloro-3-(5,7-difluoro-4-oxo-6-(2-oxoindolin-6-yl)-1,4-dihydroquinolin-2-yl)benzonitrile]: the EC50 in assay [1] and in assay [2] was 100 to 1000 nM in each case. Also, in assay [3], testing at 0.1 µM gave an inhibition of 26%.
Consider `COCc1c(F)cc2[nH]c(-c3cc(C#N)ccc3Cl)cc(=O)c2c1F` [Example 57, 4-chloro-3-(5,7-difluoro-6-(methoxymethyl)-4-oxo-1,4-dihydroquinolin-2-yl)benzonitrile], for which the EC50 in assay [1] and in assay [2] was 100 to 1000 nM in each case. In addition, at 0.1 µM the inhibition in assay [3] was 87%.
As for `N#Cc1ccc(Cl)c(-c2cc(=O)c3c(F)c(-c4cnn(C(F)(F)F)c4)c(F)cc3[nH]2)c1` [Example 58, 4-chloro-3-(5,7-difluoro-4-oxo-6-(1-(trifluoromethyl)-1H-pyrazol-4-yl)-1,4-dihydroquinolin-2-yl)benzonitrile], the EC50 in assay [1] and in assay [2] was 100 to 1000 nM in each case. The compound also displayed an inhibition at 0.1 µM in assay [3] of 88%.
For `N#Cc1ccc(Cl)c(-c2cc(=O)c3c(F)c(-c4ccc5c(c4)C(=O)NC5)c(F)cc3[nH]2)c1` [Example 59, 4-chloro-3-(5,7-difluoro-4-oxo-6-(3-oxoisoindolin-5-yl)-1,4-dihydroquinolin-2-yl)benzonitrile], the EC50 in assay [1] and in assay [2] was 10 to 100 nM in each case. The compound further showed an inhibition at 0.1 µM in assay [3] of 42%.
Regarding `Cc1cnc(-c2c(F)cc3[nH]c(-c4cc(C#N)ccc4Cl)cc(=O)c3c2F)cn1` [Example 60, 4-chloro-3-(5,7-difluoro-6-(5-methylpyrazin-2-yl)-4-oxo-1,4-dihydroquinolin-2-yl)benzonitrile], the EC50 in assay [1] and in assay [2] was 100 to 1000 nM each time. Besides, 0.1 µM produced 80% inhibition in assay [3].
In the case of `N#Cc1ccc(Cl)c(-c2cc(=O)c3c(F)c(-c4ccc(C(F)F)cn4)c(F)cc3[nH]2)c1` [Example 61, 4-chloro-3-(6-(5-(difluoromethyl)pyridin-2-yl)-5,7-difluoro-4-oxo-1,4-dihydroquinolin-2-yl)benzonitrile], the EC50 in assay [1] and in assay [2] was 100 to 1000 nM each time. Also, testing at 0.1 µM in assay [3] gave an inhibition of 70%.
Take `N#Cc1ccc(Cl)c(-c2cc(=O)c3c(F)c(-c4cn[nH]c4)c(F)cc3[nH]2)c1` [Example 62, 4-chloro-3-(5,7-difluoro-4-oxo-6-(1H-pyrazol-4-yl)-1,4-dihdroquinolin-2-yl)benzonitrile]: the EC50 in assay [1] and in assay [2] was 100 to 1000 nM in each case. In assay [3], this compound came in with an inhibition at 0.1 µM of 40%.
`Cn1ncc(-c2c(F)cc3[nH]c(-c4cc(C#N)ccc4Cl)cc(=O)c3c2F)cc1=O` [Example 63, 4-chloro-3-(5,7-difluoro-6-(1-methyl-6-oxo-1,6-dihydropyridazin-4-yl)-4-oxo-1,4-dihydroquinolin-2-yl)benzonitrile]: the EC50 in assay [1] and in assay [2] was 100 to 1000 nM each time. For the same compound, in assay [3], the inhibition at 0.1 µM was determined as 24%.
Regarding `N#Cc1ccc(Cl)c(-c2cc(=O)c3c(F)c(-c4ccc(CO)nc4)c(F)cc3[nH]2)c1` [Example 64, 4-chloro-3-(5,7-difluoro-6-(6-(hydroxymethyl)pyridin-3-yl)-4-oxo-1,4-dihydroquinolin-2-yl)benzonitrile], the EC50 in assay [1] and in assay [2] was 100 to 1000 nM in each case. This compound also had an inhibition at 0.1 µM in assay [3] of 59%.
Regarding `Cc1nc(-c2c(F)cc3[nH]c(-c4cc(C#N)ccc4Cl)cc(=O)c3c2F)c[nH]1` [Example 65, 4-chloro-3-(5,7-difluoro-6-(2-methyl-1H-imidazol-4-yl)-4-oxo-1,4-dihydroquinolin-2-yl)benzonitrile], the EC50 in assay [1] and in assay [2] was 100 to 1000 nM each time. In assay [3], this compound gave an inhibition at 0.1 µM of 44%.
Regarding `N#Cc1ccc(Cl)c(-c2cc(=O)c3c(F)c(-c4c[nH]c(C(F)(F)F)n4)c(F)cc3[nH]2)c1` [Example 67, 4-chloro-3-(5,7-difluoro-4-oxo-6-(2-(trifluoromethyl)-1H-imidazol-4-yl)-1,4-dihydroquinolin-2-yl)benzonitrile], the EC50 in assay [1] and in assay [2] was 10 to 100 nM each time. Further, testing at 0.1 µM in assay [3] gave an inhibition of 22%.
For the compound `N#Cc1ccc(Cl)c(-c2cc(=O)c3c(F)c(-c4nccc(=O)[nH]4)c(F)cc3[nH]2)c1` [Example 68, 4-chloro-3-(5,7-difluoro-4-oxo-6-(6-oxo-1,6-dihydropyrimidin-2-yl)-1,4-dihydroquinolin-2-yl)benzonitrile], the EC50 in assay [1] and in assay [2] was 1000 to 10000 nM in each case. The compound also registered an inhibition at 0.1 µM in assay [3] of 28%.
`CC(C)(CO)n1cc(-c2c(F)cc3[nH]c(-c4cc(C#N)ccc4Cl)cc(=O)c3c2F)cn1` [Example 69, 4-chloro-3-(5,7-difluoro-6-(1-(1-hydroxy-2-methylpropan-2-yl)-1H-pyrazol-4-yl)-4-oxo-1,4-dihydroquinolin-2-yl)benzonitrile]: the EC50 in assay [1] and in assay [2] was 100 to 1000 nM throughout. This compound also yielded an inhibition at 0.1 µM in assay [3] of 68%.
As to `Cc1ccc(-c2c(F)cc3[nH]c(-c4cc(C#N)ccc4Cl)cc(=O)c3c2F)nn1` [Example 70, 4-chloro-3-(5,7-difluoro-6-(6-methylpyridazin-3-yl)-4-oxo-1,4-dihydroquinolin-2-yl)benzonitrile], the EC50 in assay [1] and in assay [2] was 1000 to 10000 nM each time. Moreover, the inhibition at 0.1 µM in assay [3] was 66%.
For `N#Cc1ccc(Cl)c(-c2cc(=O)c3c(F)c(-c4ccnc(CO)c4)c(F)cc3[nH]2)c1` [Example 71, 4-chloro-3-(5,7-difluoro-6-(2-(hydroxymethyl)pyridin-4-yl)-4-oxo-1,4-dihydroquinolin-2-yl)benzonitrile], the EC50 in assay [1] and in assay [2] was 1000 to 10000 nM in each case. In assay [3], this compound displayed an inhibition at 0.1 µM of 51%.
On to `COCCn1ccc(-c2c(F)cc3[nH]c(-c4cc(C#N)ccc4Cl)cc(=O)c3c2F)n1` [Example 72, 4-chloro-3-(5,7-difluoro-6-(1-(2-methoxyethyl)-1H-pyrazol-3-yl)-4-oxo-1,4-dihydroquinolin-2-yl)benzonitrile], for which the EC50 in assay [1] and in assay [2] was 100 to 1000 nM each time. This compound also returned an inhibition at 0.1 µM in assay [3] of 79%.
In the case of `N#Cc1ccc(Cl)c(-c2cc(=O)c3c(F)c(-c4ccc(C(F)F)nc4)c(F)cc3[nH]2)c1` [Example 73, 4-chloro-3-(6-(6-(difluoromethyl)pyridin-3-yl)-5,7-difluoro-4-oxo-1,4-dihydroquinolin-2-yl)benzonitrile], the EC50 in assay [1] and in assay [2] was 10 to 100 nM each time. Further, the inhibition at 0.1 µM in assay [3] is 85%.
On to `N#Cc1ccc(Cl)c(-c2cc(=O)c3c(F)c(-c4cccc(C(=O)O)c4)c(F)cc3[nH]2)c1` [Example 74, 3-(2-(2-chloro-5-cyanophenyl)-5,7-difluoro-4-oxo-1,4-dihydroquinolin-6-yl)benzoic acid], for which the EC50 in assay [1] and in assay [2] was 100 to 1000 nM in each case. This compound also had an inhibition at 0.1 µM in assay [3] of 12%.
Turning to `N#Cc1ccc(Cl)c(-c2cc(=O)c3c(F)c(-c4ccc(C(=O)O)cc4)c(F)cc3[nH]2)c1` [Example 75, 4-(2-(2-chloro-5-cyanophenyl)-5,7-difluoro-4-oxo-1,4-dihydroquinolin-6-yl)benzoic acid], the EC50 in assay [1] and in assay [2] was 1000 to 10000 nM throughout. Further, in assay [3], the inhibition at 0.1 µM was found to be 20%.
